Test results from PMC4086859 (Journal of medicinal chemistry, 2014).
Where a name gives a salt, the structure may show the parent alone.

Experiments:
[1] = biological target: tubulin (colchicine site) (Bos taurus, UniProt P81947+Q6B856); test: Inhibition of [3H]colchicine binding to tubulin; set-up: species or system bovine; details: read-out: colchicine binding inhibition (%)
OVCAR-8 cells = test: Cell cycle analysis by FACS; type: cell-based, human; details: OVCAR-8, 1.0 μM, 24 h, P < 0.05
NCI/ADR-RES = test: Cytotoxic activity, NCI/ADR-RES cells; type: cell-based; details: Homo sapiens, 96 h, read-out: EC50 NCI/ADR-RES
OVCAR-8 = test: Cytotoxic activity, OVCAR-8 cells; type: cell-based; details: Homo sapiens, OVCAR-8, 96 h, read-out: EC50 OVCAR-8

tubulin (colchicine site), sequence (P81947 whole entry): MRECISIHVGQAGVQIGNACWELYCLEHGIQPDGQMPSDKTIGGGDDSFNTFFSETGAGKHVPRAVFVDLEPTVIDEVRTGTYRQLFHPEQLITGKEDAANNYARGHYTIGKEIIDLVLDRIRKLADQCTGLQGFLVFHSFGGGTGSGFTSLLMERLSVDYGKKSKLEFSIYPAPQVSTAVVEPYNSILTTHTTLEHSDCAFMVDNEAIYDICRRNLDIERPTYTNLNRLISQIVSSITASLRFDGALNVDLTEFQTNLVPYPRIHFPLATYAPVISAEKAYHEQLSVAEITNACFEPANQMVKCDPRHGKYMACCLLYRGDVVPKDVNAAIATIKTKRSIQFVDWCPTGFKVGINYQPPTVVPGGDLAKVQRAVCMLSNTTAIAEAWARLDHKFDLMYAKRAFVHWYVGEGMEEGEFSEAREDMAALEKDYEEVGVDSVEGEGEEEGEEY
tubulin (colchicine site), sequence (Q6B856 whole entry): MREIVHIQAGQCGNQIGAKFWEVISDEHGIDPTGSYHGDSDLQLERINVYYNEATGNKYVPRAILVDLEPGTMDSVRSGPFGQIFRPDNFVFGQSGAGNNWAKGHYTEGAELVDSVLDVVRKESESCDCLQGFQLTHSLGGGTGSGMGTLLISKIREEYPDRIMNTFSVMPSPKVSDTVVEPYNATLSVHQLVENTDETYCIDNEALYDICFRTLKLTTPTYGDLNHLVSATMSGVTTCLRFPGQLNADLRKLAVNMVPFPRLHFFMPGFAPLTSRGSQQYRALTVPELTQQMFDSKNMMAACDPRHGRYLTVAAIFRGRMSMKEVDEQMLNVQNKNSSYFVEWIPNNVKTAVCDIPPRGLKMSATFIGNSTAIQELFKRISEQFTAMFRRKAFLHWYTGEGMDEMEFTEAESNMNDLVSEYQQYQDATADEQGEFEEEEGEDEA

Row | SMILES | inhibition at 5 µM [1] | proportion of cells arrested at G2/M compared to control cells (OVCAR-8 cells) | EC50 (NCI/ADR-RES) | EC50 (OVCAR-8)
1 | Cl.c1cc(Nc2ncnc3cc4c(cc23)OCCO4)cc(-c2cccs2)c1 [Compound 5, (7,8-Dihydro[1,4]dioxino[2,3-g]quinazolin-4-yl)-[3′-(thien-2″-yl)phenyl]amine Hydrochloride] | 75 ± 0.8% | significantly increased |  | 
2 | c1ccc(-c2cccc(Nc3ncnc4cc5c(cc34)OCCCO5)c2)cc1 [Compound 3] | 34 ± 1% |  |  | 
3 | c1ccc(-c2cccc(Nc3ncnc4cc5c(cc34)OCCO5)c2)cc1 [Compound 2] | 41 ± 7% |  | 350 ± 80 nM | 
4 | c1cc(Nc2ncnc3cc4c(cc23)OCCO4)cc(-c2ccc[nH]2)c1 [Compound 9, (7,8-Dihydro[1,4]dioxino[2,3-g]quinazolin-4-yl)-[3′-(pyrrol-2″-yl)phenyl]amine Hydrochloride] | 33 ± 7% |  |  | 
5 | c1ccc(-c2cccc(Nc3ncnc4cc5c(cc34)OCCO5)c2)nc1 [Compound 6, (7,8-Dihydro[1,4]dioxino[2,3-g]quinazolin-4-yl)-[3′-(pyridin-yl-2″-yl)phenyl]amine Hydrochloride] | 25 ± 4% |  |  | 
6 | CC(=O)O[C@H]1C(=O)[C@@]2(C)[C@H]([C@H](OC(=O)c3ccccc3)[C@]3(O)C[C@H](OC(=O)[C@H](O)[C@@H](NC(=O)c4ccccc4)c4ccccc4)C(C)=C1C3(C)C)[C@]1(OC(C)=O)CO[C@@H]1C[C@@H]2O [paclitaxel] |  |  | 5000 nM | 5.5 ± 0.7 nM
7 | c1ccc(-c2cccc(Nc3ncnc4cc5c(cc34)OCO5)c2)cc1 [Compound 1] | 72 ± 0.4% | significantly increased |  | 
8 | COc1ccc(/C=C\c2cc(OC)c(OC)c(OC)c2)cc1O [CA-4, combretastatin A-4] |  |  | 13 ± 4 nM | 18 ± 4 nM
